Measurements taken from patent US20070010454A1, “Method for treating tumor cells resulting in minimal liver toxicity” (priority 2005, published 2007).
One block for each compound: values may come before it.

Experiments:
[1] = tested on: tyrosinase; experiment: UV-VIS spectroscopy of tyrosinase mediated metabolism of alkoxyphenols; assay type: biochemical; conditions: alkoxyphenol 100 µM, tyrosinase 20 U/mL; compared with the other alkoxyphenols
Method: UV-VIS spectroscopy of tyrosinase mediated metabolism of alkoxyphenols The spectra of a solution containing alkoxyphenol (100 µM) and tyrosinase (20 U/mL) were recorded in the absence and presence of GSH (200 µM) using a GBC UV-Visible spectral spectrophotometer (GC Scientific, Australia). The spectra of the mixture were obtained when GSH was added to the solution either before or after the addition of tyrosinase. The control spectrum was that of the respective alkoxyphenol solution (100 µM) in phosphate buffer [0.1 M (pH 7.4) containing DETAPAC (1 mM)].

[2] = tested on: rat liver microsomal P450; experiment: Microsomal mediated GSH depletion assay (rat liver microsomes/NADPH/O2); assay type: in vitro ADME
Method: Adult male Sprague-Dawley rats, 250-300 g, were obtained from Charles River Laboratories, USA, fed ad libitum, were allowed to acclimatize for 1 week on clay chip bedding in a room with a 12 h light photocycle, an environmental temperature of 21-23° C. and 50-60% relative humidity.
The rats were anesthetized by sodium pentobarbital (60 mg/kg) before surgery in order to prepare the animal before liver removal. Hepatic microsomes were prepared by differential centrifugation as described previously (14). Briefly, the liver was removed and weighed in a beaker on ice. The liver was cut into pieces and washed by cold KCl (154 mM): Tris/HCl (50 mM, pH 7.4) buffer solution then suspended into 4 volumes of KCl:Tris/HCl buffer. The tissue was gently homogenized using an electrical homogenizer and subsequently by a handheld glass tissue grinder before centrifuging at 1935 g (Beckman Avanti J-251, Beckman Rotor-JA-25.5) at 4° C. for 15 mm to remove tissue and cell debris. The supernatant was centrifuged at 12,100 g at 4° C. for 15 min to remove subcellular organelles followed by centrifigation at 100,000 g (Beckman Optima LE-80K, Beckman Rotor-45 Ti) at 4° C. for 1 h. The supernatant was discarded and micorsomes were separated and suspended in 5 mL Tris/HCl buffer (100 mM, pH 7.4) containing 1 mM DETAPAC. The mixture was homogenized using a handheld glass tissue grinder after which an additional 15 mL Tris HCl buffer was added and the solution was aliquoted in 750 µL and stored at −70° C. for subsequent use. Microsomal protein content was determined by a modified Lowry method (15).
The amount of GSH conjugates formed were determined colorimetrically using Ellman's reagent 5,5′-dithiobis-(2-nitrobenzoic acid) (DTNB) (13). Incubation mixtures contained in a final volume of 1 mL phosphate buffer (0.1 M, pH 7.4, DETAPAC 1 mM), 2 mg/mL rat liver microsomes, 200 µM GSH, 1 mM NADPH, and 100 µM alkoxyphenols. The mixtures were gently mixed at 37° C. from which 250 µL aliquots were taken at 30, 60, and 90 min time-interval points into Eppendorf tubes containing 25 µL trichloroacetic acid (30% w/v). Following protein precipitation and centrifugation for 5 min, the GSH levels of a 100 µL aliquot of the supernatant was determined by the addition of 0.1 M Tris/HCl buffer, pH 8.94 (875 µL), and 2 mg/mL DTNB (25 µL). The reduced DTNB formed was determined at 412 nm on a GBC spectral spectrophotometer.

[3] = tested on: tyrosinase; experiment: Tyrosinase mediated GSH depletion assay; assay type: biochemical; conditions: for GSH depleted in tyrosinase/O2 metabolizing system, average equivalent: average over the four compounds named; for GSH depleted in tyrosinase/O2 metabolizing system (in words) / GSH depleted in tyrosinase/O2 metabolizing system: alkoxyphenol 100 µM, GSH 200 µM
Method: Tyrosinase (10 µL; 2500 U/mL) was added to a mixture of alkoxyphenol (100 µM) and GSH (200 µM) in a final volume of 1 mL phosphate buffer (0.1 M, pH 7.4, DETAPAC 1 mM). The mixture was pre-incubated for 30, 90, and 180 min at 37° C. A 250 µL aliquot was added to trichloroacetic acid (25 µL; 30% w/v), vortexed and left at room temperature for 5 min. A 100 µL aliquot of the supernatant was then added to a mixture of Ellman's reagent 5,5′-dithiobis-(2-nitrobenzoic acid) DTNB (25 µL; 2 mg/mL) and Tris/HCl buffer (875 µL; 0.1 M, pH 8.94), and then vortexed. […] The standard curve for GSH measurement gave a regression coefficient of greater than 0.99 over the range of 5-200 µM GSH concentrations (data not shown).

[4] = tested on: B16-F0 melanoma cells; experiment: MTT cytotoxicity assay in B16-F0 melanoma cell line; assay type: cell-based, mouse
Method: The mouse B16-F0 cell line was obtained from American Type Culture Collection, USA. A frozen B16-F0 cell vial was washed twice with DMEM media before culturing in 8 mL DMEM supplemented with fetal calf serum (FCS) (10%) and streptomycin/penicillin (100 U/mL) in a T-25 flask (17). All the cell culture processes were carried out in a type II vertical laminar air flow chamber. The B16-F0 cultures were kept at 37° C. under a 5% CO2 atmosphere in a TS Autoflow CO2 Water-Jacketed Incubator (NUAIRE, USA). The culture medium was changed when acidification was indicated by the pH indicator and when needed. To detach the cells from the flask, the media was first removed from the flask. The remaining media was then washed out using sterile phosphate buffered saline (PBS) (2-3 mL). Subsequently, Versene (2-5 mL) was added to the flask and the sample was incubated for 2-3 min in the incubator to provide time for cells to detach. The detached cells were rinsed with ˜10 mL of pre-warmed sterile PBS to dilute Versene. The mixture was transferred into a 50 mL tube. The flask was additionally rinsed with sterile PBS and the content was added to the rest of the cells collected. The cells were then spun down at 800 RPM (Beckman GPR Centrifuge, USA) for 3-5 min. The PBS-Versene mixture was aspirated off. Pelletted cells were then re-suspended in DMEM media (supplemented by FCS 10% and antibiotics 100 U/mL) followed by splitting the mixture into one T-75 flask containing 30 mL media (25% of the media was supplemented from the previous culture step as conditioning media).
To evaluate cytotoxicity, cells were obtained from exponentially growing 90-95% confluent cultures and seeded at 12,500 cells/well in 96-well plates. The cells were kept in 100 µL fresh DMEM media (supplemented by FCS 10% and antibiotics 100 U/mL) for 24 h to allow cell adhesion and environmental adaptation. Subsequently, the cells were treated with additional 150 µL DMEM (supplemented with FCS 10% and antibiotics 100 U/mL) containing various concentrations of alkoxyphenols for 1-4 days. At 24 h interval, the medium was removed and the wells were washed three times using DMEM media alone before adding 40 µL of 2 mg/mL yellow tetrazolium dye (3-(4,5-dimethylthiazolyl-2)-2,5-diphenyltetrazolium bromide) (MTT) (17). The plates were returned to the incubator for a period of 4 h. […] The plates were stored at room temperature in a dark place for an additional 2 h before reading them at 570 nm using XFluor Plate Reader (Tecan US, Inc, USA). […]
Lethal concentrations (LC) which can cause 10% and 50% of the cell death were calculated from the linear regression equation derived from graphing the viability of the cells at day 2 (on x axis) versus the concentration of the drug (on y axis).

[5] = tested on: melanoma; conditions: cited from earlier work
[6] = tested on: isolated rat hepatocytes; conditions: reactive metabolite of 4-HA formed by liver P450s; cited from earlier work

SMILES: CC(C)(C)Oc1ccc(O)cc1 [4-tBP, 4-t-butoxyphenol]
- fold lower rate of oxidation by tyrosinase/O2 metabolizing system [1]: 20 fold
- GSH depletion by microsomal P450/NADPH/O2, fold less than 4-HA ([2]; 100 µM concentration): 2.3 fold
- glutathione depletion by microsomal P450 system (in words) ([2]; 100 µM concentration): lowest rate of GSH depletion
- glutathione depletion by microsomal P450 system (in words) ([2]; 100 µM concentration, listed as 4-t-butoxyphenol): lowest amount of glutathione depletion
- GSH depleted by rat liver microsomes/NADPH/O2 ([2]; 90 min incubation, alkoxyphenol 100 µM, 2 mg/mL microsomes, 200 µM GSH): 0.5 equivalents of GSH per mole
- GSH depleted in tyrosinase/O2 metabolizing system, average equivalent ([3]; 90 min incubation): 0.15 molar per mole
- fold less toxic than the toxic value calculated from Eq. 2 (QSTR) ([4]; LC50 day 2, B16-F0): 3.6 fold

- GSH depleted in tyrosinase/O2 metabolizing system (in words) ([3]; 90 min incubation): mole per mole basis
SMILES: CCOc1ccc(O)cc1 [4-EP]

- GSH depleted in tyrosinase/O2 metabolizing system ([3]; 90 min incubation): 1.8 molecular equivalent of GSH per mole
SMILES: CC(C)COc1ccc(O)cc1 [4-iBP]

- GSH depleted in tyrosinase/O2 metabolizing system, average equivalent ([3]; 90 min incubation): 0.15 molar per mole
SMILES: CC(C)Oc1ccc(O)cc1 [4-iPP]

- GSH depleted in tyrosinase/O2 metabolizing system ([3]; 90 min incubation): 1.8 molecular equivalent of GSH per mole
SMILES: CCCCOc1ccc(O)cc1 [4-nBP]

- GSH depleted in tyrosinase/O2 metabolizing system, average equivalent ([3]; 90 min incubation): 0.15 molar per mole
SMILES: CCC(C)Oc1ccc(O)cc1 (stereo not shown) [4-sBP]

- GSH depleted in tyrosinase/O2 metabolizing system ([3]; 30 min incubation): 1.8 molecular equivalent of GSH per mole
SMILES: COc1ccc(O)cc1 [4-HA, 4-hydroxyanisole, reference compound]
- fold more toxic than the toxic value calculated from Eq. 2 (QSTR) ([4]; LC50 day 2, B16-F0): 1.7 fold
- clinical liver toxicity (in words) ([5]; clinical trials terminated): serious liver damage occurred
- clinical effect (in words) ([5]; topical application and intra-arterial infusions into patients' legs): Depigmentation and tumor shrinkage

SMILES: O=C1C=CC(=O)C=C1 [p-quinone]
- toxicity to isolated rat hepatocytes (in words) [6]: highly toxic

SMILES: CCCCCCOc1ccc(O)cc1 [4-nHP, 4-n-hexyloxyphenol]
- metabolism by liver P450 microsomal preparation (in words) [2]: minimal metabolism
- glutathione depletion in microsomal preparations (in words) ([2]; at calculated LC10 and LC50 lethal concentrations for B16-F0): minimally depleting glutathione
- GSH depleted in tyrosinase/O2 metabolizing system ([3]; 90 min incubation): 1.8 molecular equivalent of GSH per mole
- toxicity towards B16-F0 cells (in words) ([4]; MTT assay, 1-4 days): greatest toxicity

- GSH depleted in tyrosinase/O2 metabolizing system (in words) ([3]; 90 min incubation): mole per mole basis
SMILES: CCCOc1ccc(O)cc1 [4-nPP]

SMILES: CC(C)Oc1ccccc1O [2-iPP, 2-iso-propoxyphenol]
- fold lower rate of oxidation by tyrosinase/O2 metabolizing system [1]: 20 fold
- GSH depleted in tyrosinase/O2 metabolizing system, average equivalent ([3]; 90 min incubation): 0.15 molar per mole
- fold less toxic than the toxic value calculated from Eq. 2 (QSTR) ([4]; LC50 day 2, B16-F0): 3.6 fold
